Source: patent US20110059035A1, “COMPOSITIONS BASED ON POLYMER/HYDROGEN PEROXIDE COMPLEXES AND USES THEREOF” (L"OREAL, priority 2008, published 2011)

Columns and labels:
[1] = Activator selection: pH of Peroxydone K-30 dispersion in water after addition of activator; type: physicochemical; conditions: for Associated pH: at the minimum amount of activator, 11 g of Peroxydone K-30 in 75 g of water; for Minimum amount in order to reach a pH > 9 or a plateau pH if pH < 9: initial amount of 11 g of Peroxydone K-30, i.e. 2 g of H2O2, in 75 g of water
Protocol: In the case of a PVP-H2O2 complex, the following protocol can be used to select the activators. A dispersion of 11 g of Peroxydone K-30® (ISP) in 75 g of water is produced, to which increasing amounts of activator are added. pH is measured immediately after each addition. The activator is added in excess until the activator/H2O2 ratio by weight reaches 10.

[2] = In vitro bleaching test on a dye (lightening activity); conditions: H2O2 4% or PVP-H2O2 22% (eq. 4% H2O2), 1 g in 19 g dye solution, pH 10.7, OD 630 nm
Protocol: Protocol for in vitro bleaching test Dye solution or “solution X” is a solution of disodium salt of brilliant blue FCF (CI: 42090) from LCW (Sensient). The dye solution is prepared as follows: 15 mg of dye powder are dissolved in 50 ml of borate buffer pH 10.7 and then again diluted to 1/50th. […] After stirring the mixture in the dark for 10 min, the dispersion is filtered (0.45 μm cellulose filter) and the optical density is measured over the range from 400 to 800 nm at 25° C. […] The decoloring effectiveness is reflected by the bleaching percentage at t=10 min (i.e. [ODt10 min (mixture)−ODt10 min (dye)/ODt0 (dye)]×100.

Row | SMILES | Associated pH [1] | Minimum amount in order to reach a pH > 9 or a plateau pH if pH < 9 [1] [g] | bleaching percentage at t=10 min ([2]; dilution medium PEG-8) [%] | bleaching percentage at t=10 min ([2]; dilution medium butylene glycol) [%] | bleaching percentage at t=10 min ([2]; dilution medium ethanol) [%] | bleaching percentage at t=10 min ([2]; dilution medium glycerol) [%]
1 | [Ca+2].[O-][O-] [Calcium peroxide] | 9.3 | 0.05 | – | – | – | –
2 | OO [Product H2O2, hydrogen peroxide] | – | – | 61 | 63 | 72 | 27
3 | O=C([O-])O.[Na+] [Sodium bicarbonate] | 8.1 | 0.9 | – | – | – | –
4 | O=[Si]([O-])[O-].[Na+].[Na+] [Sodium metasilicate] | 9.8 | 0.11 | – | – | – | –
